{"source": "paper PMC10928841", "about": "“Ames test study designs for nitrosamine mutagenicity testing: qualitative and quantitative analysis of key assay parameters” (Mutagenesis, 2023)", "key": {"CYP2E1 [1]": {"biological_target": "CYP2E1 (Rattus norvegicus, UniProt P05182)", "sequence (P05182 whole entry)": "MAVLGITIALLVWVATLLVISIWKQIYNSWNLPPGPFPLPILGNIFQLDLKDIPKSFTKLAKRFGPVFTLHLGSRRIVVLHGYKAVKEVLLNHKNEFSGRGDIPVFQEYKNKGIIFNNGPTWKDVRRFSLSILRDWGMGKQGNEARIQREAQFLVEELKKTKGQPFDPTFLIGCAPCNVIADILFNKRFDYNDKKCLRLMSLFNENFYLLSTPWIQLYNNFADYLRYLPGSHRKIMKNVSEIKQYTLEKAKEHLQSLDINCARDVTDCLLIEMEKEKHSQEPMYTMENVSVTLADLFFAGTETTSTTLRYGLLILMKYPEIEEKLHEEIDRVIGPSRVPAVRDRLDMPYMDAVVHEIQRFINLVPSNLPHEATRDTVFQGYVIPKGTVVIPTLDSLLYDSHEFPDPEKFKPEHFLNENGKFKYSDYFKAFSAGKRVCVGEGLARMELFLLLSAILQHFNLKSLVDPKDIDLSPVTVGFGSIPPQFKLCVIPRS", "assay": "Effect of vehicle on CYP2E1 activity of rat liver S9 (chlorzoxazone 6-hydroxylation)", "settings": "induced rat liver S9; vehicle 7.7% (v/v); chlorzoxazone 10 µM; 30 min"}, "CYP2E1 [2]": {"biological_target": "CYP2E1 (Mesocricetus auratus, UniProt P51581)", "sequence (P51581 whole entry)": "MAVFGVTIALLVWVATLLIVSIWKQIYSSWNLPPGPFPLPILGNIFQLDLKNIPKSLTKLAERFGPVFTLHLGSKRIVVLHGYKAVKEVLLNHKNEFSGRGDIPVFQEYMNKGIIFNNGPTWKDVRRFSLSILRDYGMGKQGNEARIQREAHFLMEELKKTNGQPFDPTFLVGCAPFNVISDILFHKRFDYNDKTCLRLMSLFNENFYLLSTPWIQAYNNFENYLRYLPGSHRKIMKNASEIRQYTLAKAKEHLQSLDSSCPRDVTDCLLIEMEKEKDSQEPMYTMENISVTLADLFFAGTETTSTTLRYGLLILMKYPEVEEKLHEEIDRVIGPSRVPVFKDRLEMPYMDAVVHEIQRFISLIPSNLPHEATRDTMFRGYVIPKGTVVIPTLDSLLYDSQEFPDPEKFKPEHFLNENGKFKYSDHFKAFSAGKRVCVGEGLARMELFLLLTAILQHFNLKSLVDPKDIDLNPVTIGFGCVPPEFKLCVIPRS", "assay": "Effect of vehicle on CYP2E1 activity of hamster liver S9 (chlorzoxazone 6-hydroxylation)", "settings": "vehicle 7.7% (v/v), chlorzoxazone 10 µM, 30 min; for effect on conversion of chlorzoxazone to 6-hydroxychlorzoxazone compared with water: induced hamster liver S9; for reduction of 6-hydroxychlorzoxazone formation compared with water: Aroclor-induced hamster liver S9"}, "Salmonella typhimurium": {"system": "Salmonella typhimurium", "settings": "cited from earlier work"}, "E. coli WP2uvrA (pKM101) [3]": {"system": "E. coli WP2uvrA (pKM101)", "settings": "for increase in mutant frequency at the limit concentration: 5000 µg/plate"}, "[4]": {"system": "S. typhimurium and E. coli tester strains", "assay": "Benchmark dose (BMD) modelling of positive Ames test dose-response data", "type": "cell-based, Salmonella typhimurium and Escherichia coli", "settings": "BMR 100%; all positive combinations of vehicle, method, strain and S9", "procedure": "Benchmark dose analyses were carried out using the freely available PROAST R-package (version 70.3) (http://www.proast.nl). Ames test dose–response data (with cytotoxic test concentrations removed) were analysed using the exponential model family recommended by EFSA for the assessment of continuous (geno)toxicity dose–response data [37]. Where combined analyses were used, dose–response relationships were analysed using the assay conditions discriminating the subgroups (i.e. sub-study) as a covariate. To prevent overfitting, more complex models with additional parameters were only accepted if the goodness-of-fit exceeded the critical value at P < .05. PROAST outputs designate potency (i.e. the benchmark dose (BMD)) and its two-sided, 90% confidence interval (i.e. the BMDL and BMDU) as the ‘Critical Effect Dose’ (i.e. yielding a CED, CEDL, and CEDU), respectively, for each level of the covariate. Using the combined-covariate BMD approach [38], the model parameters that required estimation for each subgroup and those that could be considered constant across subgroups were established for the combined dataset. In general, the combined analyses presented here assumed that parameters for the maximum response (parameter c), log-steepness (parameter d) were equal for all subgroups, while the background response (parameter a), potency (parameter b), and within-group variation (var) were tested for subgroup dependence [39]. Model fits were used to visually evaluate the validity of the assumption of conserved shape. […]\nTo further understand the impact of different test parameters on test outcomes, BMD-derived potency/sensitivity rankings [38] were generated from the dose–response relationships for NDMA and NDEA. […] Instead, the purpose is to quantitatively provide a means to compare the potency/sensitivity of different assay conditions, that is, bacterial strain, S9 source, vehicle, and plate/pre-incubation methods, to inform on optimal study designs for robust/sensitive mutagenicity calls. […]"}, "S. typhimurium TA98": {"system": "S. typhimurium TA98", "assay": "Ames test, pre-incubation method, TA98", "settings": "vehicle acetonitrile, up to 5000 µg/plate"}, "S. typhimurium TA1537": {"system": "S. typhimurium TA1537", "assay": "Ames test, pre-incubation method, TA1537", "settings": "S9 hamster, vehicle acetonitrile, up to 5000 µg/plate"}, "E. coli WP2uvrA (pKM101) [5]": {"system": "E. coli WP2uvrA (pKM101)", "assay": "Ames test, pre-incubation method, WP2uvrA (pKM101)", "settings": "for increase in mutant frequency compared with vehicle controls: 5000 µg/plate"}, "S. typhimurium TA100": {"system": "S. typhimurium TA100", "assay": "Ames test, pre-incubation method, TA100"}, "rat": {"system": "rat", "set-up": "method as in PMID 4230610", "settings": "historical data; cited from earlier work"}, "S. typhimurium TA1535": {"system": "S. typhimurium TA1535", "assay": "Ames test, pre-incubation method, TA1535", "settings": "hamster liver S9-mix, vehicle water, 5000 µg/plate"}, "[6]": {"settings": "plate incorporation, rat liver S9-mix, vehicle methanol, E. coli WP2uvrA (pKM101)"}, "[7]": {"settings": "plate incorporation, rat liver S9-mix, vehicle water, E. coli WP2uvrA (pKM101)"}, "[8]": {"settings": "rat liver S9-mix, vehicle methanol"}}, "note": "Read-outs that look alike come from different tables or passages of the source.", "data": [{"smiles": "C[S+](C)[O-]", "note": "[DMSO, dimethylsulfoxide]", "values": [{"measurement": "effect on conversion of chlorzoxazone to 6-hydroxychlorzoxazone compared with water", "setting": "CYP2E1 [1]", "result": "inhibit"}, {"measurement": "effect on conversion of chlorzoxazone to 6-hydroxychlorzoxazone compared with water", "setting": "CYP2E1 [2]", "result": "inhibit"}]}, {"smiles": "CO", "note": "[Methanol, methanol]", "values": [{"measurement": "effect on conversion of chlorzoxazone to 6-hydroxychlorzoxazone compared with water", "setting": "CYP2E1 [1]", "result": "negligible effect"}, {"measurement": "reduction of 6-hydroxychlorzoxazone formation compared with water", "setting": "CYP2E1 [2]", "result": "~ 50%"}]}, {"smiles": "CCN(CC)N=O", "note": "[NDEA, N-nitrosodiethylamine]", "values": [{"measurement": "mutagenicity in the absence of metabolic activation", "setting": "Salmonella typhimurium; not tested in the current study", "result": "non-mutagenic"}, {"measurement": "Ames test strain WP2*", "setting": "E. coli WP2uvrA (pKM101) [3]", "result": "+"}, {"measurement": "concentration giving concentration-dependent increases in mutant frequency", "setting": "E. coli WP2uvrA (pKM101) [3]; plate incorporation, rat liver S9-mix, all three vehicles water, methanol or DMSO, E. coli WP2uvrA (pKM101)", "result": "≥ 1500", "unit": "µg/plate"}, {"measurement": "range in sensitivity/potency (BMD100 confidence intervals) across positive datasets", "setting": "[4]", "result": "~ 100 fold"}, {"measurement": "Ames test strain TA98", "setting": "S. typhimurium TA98; S9 hamster", "result": "Toxic"}, {"measurement": "Ames test strain TA98", "setting": "S. typhimurium TA98; S9 rat", "result": "Toxic"}, {"measurement": "Ames test strain TA1537", "setting": "S. typhimurium TA1537", "result": "Toxic"}]}, {"smiles": "CN(C)N=O", "note": "[NDMA, N-Nitrosodimethylamine]", "values": [{"measurement": "increase in mutant frequency compared with vehicle controls", "setting": "E. coli WP2uvrA (pKM101) [5]; rat liver S9, vehicle methanol", "result": 2, "unit": "fold"}, {"measurement": "increase in mutant frequency compared with vehicle controls", "setting": "E. coli WP2uvrA (pKM101) [5]; rat liver S9, vehicle water", "result": 2.6, "unit": "fold"}, {"measurement": "concentration giving an increase in revertant colonies compared with vehicle controls", "setting": "E. coli WP2uvrA (pKM101) [3]; [6]", "result": 5000, "unit": "µg/plate"}, {"measurement": "concentration giving an increase in revertant colonies compared with vehicle controls", "setting": "E. coli WP2uvrA (pKM101) [3]; [7]", "result": "≥ 1500", "unit": "µg/plate"}, {"measurement": "range in sensitivity/potency (BMD100 confidence intervals) across positive datasets", "setting": "[4]", "result": "~ 1000 fold"}]}, {"smiles": "CCN(C)N=O", "note": "[NMEA, N-nitrosomethylethylamine]", "values": [{"measurement": "fold-increase at the limit concentration", "setting": "S. typhimurium TA100; hamster liver S9-mix, vehicle water, 5000 µg/plate", "result": 32, "unit": "fold"}, {"measurement": "concentration giving a concentration-related increase in revertant colonies", "setting": "S. typhimurium TA100; [8]", "result": "≥ 1500", "unit": "µg/plate"}, {"measurement": "rodent cancer bioassay", "setting": "rat", "result": "positive"}, {"measurement": "Ames test (legacy result)", "setting": "Salmonella typhimurium; historical data", "result": "negative"}, {"measurement": "fold-increase at the limit concentration", "setting": "S. typhimurium TA1535", "result": 275, "unit": "fold"}, {"measurement": "concentration giving a positive response", "setting": "E. coli WP2uvrA (pKM101) [5]; [8]", "result": 5000, "unit": "µg/plate"}, {"measurement": "concentration giving an increase in revertant colonies compared with vehicle controls", "setting": "E. coli WP2uvrA (pKM101) [3]; [6]", "result": "≥ 1500", "unit": "µg/plate"}, {"measurement": "increase in mutant frequency at the limit concentration", "setting": "E. coli WP2uvrA (pKM101) [3]; [6]", "result": 4.3, "unit": "fold"}, {"measurement": "concentration giving an increase in revertant colonies compared with vehicle controls", "setting": "E. coli WP2uvrA (pKM101) [3]; [7]", "result": "≥ 2500", "unit": "µg/plate"}, {"measurement": "increase in mutant frequency at the limit concentration", "setting": "E. coli WP2uvrA (pKM101) [3]; [7]", "result": 2.7, "unit": "fold"}, {"measurement": "range in sensitivity/potency (BMD100 confidence intervals) across positive datasets", "setting": "[4]", "result": 1000, "unit": "fold"}]}, {"smiles": "CC(C)=O", "note": "[acetone]", "values": [{"measurement": "effect on conversion of chlorzoxazone to 6-hydroxychlorzoxazone compared with water", "setting": "CYP2E1 [1]", "result": "negligible effect"}, {"measurement": "reduction of 6-hydroxychlorzoxazone formation compared with water", "setting": "CYP2E1 [2]", "result": "~ 75%"}]}, {"smiles": "CC#N", "note": "[acetonitrile]", "values": [{"measurement": "effect on conversion of chlorzoxazone to 6-hydroxychlorzoxazone compared with water", "setting": "CYP2E1 [1]", "result": "inhibit"}, {"measurement": "effect on conversion of chlorzoxazone to 6-hydroxychlorzoxazone compared with water", "setting": "CYP2E1 [2]", "result": "inhibit"}]}]}
